Experimental findings from patent US10091997B2, “Composition for inhibition of insect host sensing” (Vanderbilt University, priority 2010, dated 2018) are described below.

Assay [1] has as its target T1, AgORco (Anopheles gambiae, UniProt Q7QCC7).
T1 construct: expressed in transfected cells
T1 sequence (Q7QCC7 1-478): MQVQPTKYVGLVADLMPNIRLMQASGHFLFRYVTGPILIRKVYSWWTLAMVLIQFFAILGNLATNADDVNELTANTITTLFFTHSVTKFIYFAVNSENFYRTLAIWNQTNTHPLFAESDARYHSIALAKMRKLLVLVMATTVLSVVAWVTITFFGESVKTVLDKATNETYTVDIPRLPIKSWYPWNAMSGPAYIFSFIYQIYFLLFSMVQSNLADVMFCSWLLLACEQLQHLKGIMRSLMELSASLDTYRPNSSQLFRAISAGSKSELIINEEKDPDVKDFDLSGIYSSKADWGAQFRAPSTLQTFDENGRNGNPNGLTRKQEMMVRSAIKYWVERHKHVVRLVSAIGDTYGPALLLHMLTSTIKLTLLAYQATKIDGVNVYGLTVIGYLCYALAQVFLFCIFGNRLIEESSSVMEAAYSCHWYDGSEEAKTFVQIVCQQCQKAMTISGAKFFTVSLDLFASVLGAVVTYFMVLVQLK
Description: whole-cell patch clamp, HEK293 cells stably expressing AgORco alone. The format is cell-based. As to the method: Currents from OR-expressing HEK293 cells were amplified with an Axopatch 200b Amplifier (Axon Instruments) and digitized through a Digidata 1322A (Axon Instruments). Electrophysiological data was recorded and analyzed using pCLAMP 10 (Axon Instruments). Electrodes were fabricated from quartz tubing (Sutter Instruments) and pulled to 4-6 MΩ for whole cell recording. Electrodes were filled with internal solution (120 mM KCl, 30 mM D-glucose, 10 mM HEPES, 2 mM MgCl2, 1.1 mM EGTA, and 0.1 CaCl2 (pH 7.35, 280 mOsm). External (bath) solution contained 130 mM NaCl, 34 mM D-glucose, 10 mM HEPES, 1.5 mM CaCl2, 1.3 mM KH2PO4, and 0.5 MgSO4 (pH 7.35, 300 mOsm). Compounds were diluted in external solution and locally perfused to the recording cell using Perfusion Pencil (Automate Scientific) and controlled by a ValveLink 8.2 controller (Automate Scientific). Whole cell recordings were sampled at 10 kHz and filtered at 5 kHz. Outside-out patches were obtained using 10-15MΩ electrodes pulled from standard glass capillaries (World Precision Instruments) and fire-polished with an MF-830 micro forge (Narishige). Single channel recordings were sampled at 20 kHz. Recordings were reduced to 1 kHz and low-pass filtered at 500 Hz for display and analysis using QuB (SUNY at Buffalo).
To test the hypothesis that VUAA1 directly agonized AgORco, whole-cell patch clamp responses were examined in AgORco+AgOR10 expressing cells as well HEK293 cells stably expressing AgORco alone. […] The VUAA1-dependent currents in AgORco+AgOR10 cells resembled those resulting from application of benzaldehyde, an orthosteric agonist of AgOR10 (FIG. 3C) (Wang, 2010; Carey, 2010). AgORco+AgOR10 cells were more sensitive to VUAA1 than AgORco cells, producing inward currents at −5.0 log M, a concentration at which AgORco had no response. […] To investigate the specificity of VUAA1 agonism, the inventors transiently transfected HEK cells with the AgORco orthologs of Drosophila melanogaster and Heliothis virescens, DmOR83b and HvOR2 respectively.
In general terms: In patch-clamp work, channel activity is measured electrically.

Assay [2] relates to CpA neuron (CO2 sensitive, does not express AgORco). Description: single sensillum recordings, capitate peg sensilla, CpA neuron. It counts as in vivo, Anopheles gambiae. To be noted: CO2 pulse at completion of assay, adult females. The method, then: Single sensillum recordings were performed on 4-7 day old, non-bloodfed Anopheles gambiae females maintained on 10% sucrose and a 12/12 light dark cycle. Legs, wings and antennae were removed from cold-anesthetized females that were then restrained on double-stick tape with thread. A glass reference electrode filled with Sensillar lymph ringers (SLR)(Xu, 2005) was placed in the eye and the recording electrode filled with DMSO or VUAA1 diluted in SLR was used to puncture sensilla at their base. Responses were recorded and digitized using a Syntech IDAC-4 and analyzed with AutoSpike software (Syntech). New glass recording pipettes were used for every recording. Data was sampled at 12 kHz.
The inventors next performed single unit, extracellular electrophysiological recordings on adult female An. gambiae to determine whether VUAA1 could activate AgORco-expressing odorant receptor neurons (ORNs) in vivo. ORNs, which express AgORco and a conventional OR are enclosed within the hair-like sensilla present on olfactory tissues. […] CpA is clearly distinguished from CpB/C by its large action potential amplitude. The action potential amplitudes of CpB and CpC are much smaller and in some preparations indistinguishable from each other; as a result, the spike activity of CpB and CpC neurons were binned for data analysis. […]

The subject of assay [3] is HvOR2. As to the kind of experiment: whole-cell patch clamp, HEK cells transiently transfected with HvOR2. It counts as cell-based, Heliothis virescens. To be noted: HEK cells expressing HvOR2, −60 mV. The text has this:
For transient transfections, ORs were cloned into pCI (Promega) and transfected into Flp-In™ T-REx™293 cell lines (Invitrogen) with Fu GENE6 (Roche). For the creation of stable cell lines, a cell culture expression vector capable of expressing AgORco in conjunction with a conventional OR, pcDNA5/FRT/TO (Invitrogen) was modified to create two individual expression cassettes each under the control of a separate CMV/TetO2 promoter and a BGH poly-adenylation signal. Cells (as above) were transfected with the modified pcDNA5 plasmid along with POG44 (a Flp recombinase expression plasmid) to facilitate site-specific recombination. Stable cell lines were selected using Hygromycin B (Invitrogen). Cells were maintained in DMEM (Invitrogen) supplemented with 10% Tetracycline-free FBS (HyClone) and 15 μg/ml Blasticidin. […] Baseline readings were taken for 20 s before automated addition of compound previously diluted in DMSO and assay buffer. […]
Currents from OR-expressing HEK293 cells were amplified with an Axopatch 200b Amplifier (Axon Instruments) and digitized through a Digidata 1322A (Axon Instruments). Electrophysiological data was recorded and analyzed using pCLAMP 10 (Axon Instruments). […]

In assay [4] the target is T2, rat transient receptor potential vanilloid 1 (rTRPV1) (Rattus norvegicus, UniProt O35433).
T2 construct: expressed in transfected cells
T2 sequence (O35433 whole entry): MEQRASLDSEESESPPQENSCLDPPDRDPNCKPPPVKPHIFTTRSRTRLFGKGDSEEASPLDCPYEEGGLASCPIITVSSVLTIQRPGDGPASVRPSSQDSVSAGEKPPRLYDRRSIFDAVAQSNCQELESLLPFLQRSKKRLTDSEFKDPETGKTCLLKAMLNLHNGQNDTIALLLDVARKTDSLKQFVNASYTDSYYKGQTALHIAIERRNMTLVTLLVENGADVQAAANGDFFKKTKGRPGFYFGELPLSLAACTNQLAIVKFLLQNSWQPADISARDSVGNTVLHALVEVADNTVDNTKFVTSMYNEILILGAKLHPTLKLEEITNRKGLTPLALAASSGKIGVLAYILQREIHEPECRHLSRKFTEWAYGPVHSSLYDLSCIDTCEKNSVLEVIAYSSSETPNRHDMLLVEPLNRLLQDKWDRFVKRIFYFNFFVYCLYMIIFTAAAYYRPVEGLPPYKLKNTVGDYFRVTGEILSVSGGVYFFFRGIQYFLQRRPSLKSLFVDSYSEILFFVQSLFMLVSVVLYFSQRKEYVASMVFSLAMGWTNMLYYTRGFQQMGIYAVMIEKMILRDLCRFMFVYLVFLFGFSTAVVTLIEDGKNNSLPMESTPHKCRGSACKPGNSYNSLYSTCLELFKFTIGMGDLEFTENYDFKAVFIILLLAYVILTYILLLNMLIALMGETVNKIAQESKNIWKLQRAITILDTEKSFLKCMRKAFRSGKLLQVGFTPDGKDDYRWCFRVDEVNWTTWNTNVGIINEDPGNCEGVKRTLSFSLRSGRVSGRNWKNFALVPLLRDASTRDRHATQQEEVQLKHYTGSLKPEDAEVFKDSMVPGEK
As to the kind of experiment: whole-cell patch clamp, HEK cells stably expressing rTRPV1. The format is cell-based.
Description: To determine the broad-spectrum specificity of VUAA1, the inventors tested VUAA1 on another non-selective cation channel, transient receptor potential vanilloid receptor 1 (TRPV1) (Caterina, 1997; Bohlen, 2010).

Turning to `CCc1ccc(NC(=O)CSc2nnc(-c3cccnc3)n2CC)cc1` [VUAA1], the whole-cell currents result in assay [1] (AgORco alone cells, clamped at −60 mV) is “concentration-dependent inward currents”; in assay [3] it was “robust inward currents”; in assay [4], “did not elicit currents”. Moreover, in assay [1] (AgORco alone cells, −5.0 log M), the “whole-cell response at −5.0 log M” value is “no response”. Further, the reversal potential result in assay [1] (AgORco alone, mean±s.e.m.) is “+0.4±1.1 mV”. The CpA activity entry in assay [2] is “unchanged”.
